Measured values taken from patent US10973834B2, “EP4 inhibitors and use thereof” (Arrys Therapeutics, Inc., priority 2018, dated 2021).

How the values were obtained:
CT-26 tumors = test: Immune cell composition of CT-26 tumors by flow cytometry; assay type: in vivo, BALB/c mice; conditions: after 7 days of dosing, Compound B 15 mg/kg BID, anti-PD1 10 mg/kg Q3D
Protocol: The immune cell composition of Compound B as a single agent and combined with a mouse anti-PD1 antibody was evaluated in the CT-26 mouse colon adenocarcinoma model grown in BALB/c mice. Mice were inoculated subcutaneously in the right flank with 5×10^5 tumor cells. When tumors reached an average size of 85 mm^3 dosing was initiated. The dosing regimens in the 4 separate cohorts comprising 10 mice each are listed as follows:
After dosing animals for 7 days, tumors were resected and used to prepare single cell suspensions. Live cells representing tumor and immune cells were stained with cocktails of antibodies targeting multiple immune cell markers (anti-CD45, anti-CD3, anti-CD4, anti-CD8, anti-CD25, anti-FoxP3, anti-PD-1, anti-CD11c) conjugated to different fluorescent tags. The stained cells were fixed in 4% paraformaldehyde and quantified using a multi-color flow cytometer (Fortessa). The data was analyzed with FloJo software.

[1] = test system: CT-26 mouse colon adenocarcinoma; test: Antitumor activity of Compound B alone and with anti-PD1 in the CT-26 model, additional experiment; assay type: in vivo, BALB/c mice; conditions: CT-26 tumors; Compound B 15 mg/kg BID po; anti-PD1 10 mg/kg ip BIW; n=7/group; FIG. 5
Protocol: The antitumor activity of Compound B as a single agent and combined with a mouse anti-PD1 antibody was evaluated in the CT-26 mouse colon adenocarcinoma model grown in BALB/c mice in an additional experiment. Mice were inoculated subcutaneously in the right flank with 5×10^5 tumor cells. When tumors reached an average size of 91 mm^3 dosing was initiated. The dosing regimens in the 4 separate cohorts comprising 7 mice each are as follows: […]

4T1 mouse breast cancer [2] = test: Antitumor activity of Compound B alone and with anti-PD1 in the 4T1 model, additional experiment; assay type: in vivo, BALB/c mice; conditions: 4T1 tumors; Compound B 15 mg/kg BID po; anti-PD1 10 mg/kg ip BIW; n=7/group; FIG. 6
Protocol: The antitumor activity of Compound B as a single agent and combined with a mouse anti-PD1 antibody was evaluated in the 4T1 mouse breast cancer model grown in BALB/c mice in an additional experiment. Mice were inoculated subcutaneously in the right flank with 3×10^5 tumor cells. When tumors reached an average size of 97 mm^3 dosing was initiated. The dosing regimens in the 4 separate cohorts comprising 7 mice each are as follows: […]

CT26 tumor cells = test: CT26 re-inoculation of complete responders versus tumor-naive mice; assay type: in vivo; conditions: complete responders compared with 6 tumor-naive mice
Description: CT26 tumor cells were inoculated into 6 tumor-naive mice or complete responders of CT26 tumor-bearing mice previously treated with Compound B and anti-PD-1 alone or in combination.

[3] = test system: CT-26 mouse colon adenocarcinoma; test: Antitumor activity of Compound B alone and with anti-PD-1 in the CT-26 model; assay type: in vivo, BALB/c mice
Protocol: The antitumor activity of Compound B as a single agent and combined with a mouse anti-PD-1 antibody was evaluated in the CT-26 mouse colon adenocarcinoma model grown in BALB/c mice. Mice were inoculated subcutaneously in the right flank with 5×10^5 tumor cells. When tumors reached an average size of 71 mm^3 (6 days after tumor cell inoculation) dosing was initiated. The dosing regimens in the 8 separate cohorts comprising 10 mice each are as follows: […]

4T1 mouse breast cancer [4] = test: Antitumor activity of Compound B alone and with anti-CTLA4 in the 4T1 model; assay type: in vivo, BALB/c mice; conditions: 4T1 tumors; Compound B 15 mg/kg BID; n=10/group; FIG. 3
Description: Mice were inoculated subcutaneously in the right flank with 3×10^5 tumor cells. When tumors reached an average size of 100 mm^3 (7 days after tumor cell inoculation) dosing was initiated.

[5] = 99 days after tumor inoculation

With `C[C@H](NC(=O)c1cc(Cl)cnc1Oc1cccc(F)c1)c1ccc(C(=O)O)cc1` [Compound B] the “percentage of dendritic cells (CD45, CD11c positive)” value (CT-26 tumors; FIG. 7b) was “increased percentage”, the “regulatory T cells (CD45, CD4, FoxP3, CD25 positive)” value (CT-26 tumors; versus vehicle, FIG. 7a) was “significant decrease” and the “tumor growth kinetics during the period of dosing” value [1] was “less than that of the vehicle group”. The “tumor growth kinetics during the period of dosing” value (4T1 mouse breast cancer [2]) was “less than that of the vehicle group and anti-PD1 when dosed alone”, the “growth of re-inoculated CT26 in complete responders” value (CT26 tumor cells) was “decreased the growth of CT26 relative to naive mice” and the mice still alive [3, 5] was 1 out of 10. For the same molecule, the mice tumor free [3, 5] was 1 out of 10, the “tumor growth kinetics during the period of dosing” value ([3]; CT-26 tumors, Compound B 15 mg/kg QD and BID p.o., anti-PD-1 10 mg/kg i.p., n=10/group, FIG. 1) was “not notably different from the vehicle treated mice” and the “tumor growth kinetics during the period of dosing” value (4T1 mouse breast cancer [4]) was “decreased relative to the vehicle treated mice”.
